Source: ChEMBL document CHEMBL1681652, “Synthesis and evaluation of 2-phenyl-1,4-butanediamine-based CCR5 antagonists for the treatment of HIV-1” (Bioorg Med Chem Lett, 2011)

How the values were obtained:
[1] = system: Human immunodeficiency virus 1; test: Antiviral activity against HIV1 Ba-L infected in human HOS cells expressing CCR5 after 4 days; assay type: functional, organism-based
[2] = system: Human immunodeficiency virus 1; test: Antiviral activity against HIV1 Ba-L infected in human PBL cells assessed as reverse transcriptase activity after 7 days; assay type: functional, organism-based; details: Human immunodeficiency virus 1, Ba-L, 168 h
[3] = Oral bioavailability in Sprague-Dawley rat at 1 mg/kg; assay type: ADME, organism-based; details: in vivo
[4] = system: Rattus norvegicus; test: AUC in Sprague-Dawley rat at 1 mg/kg, iv and po; assay type: ADME, organism-based, Plasma; parameters: dose 1 mg/kg, route oral; unit not given here; details: in vivo
[5] = Half life in human hepatocytes; assay type: ADME, cell-based, Liver, Hepatocyte
[6] = Half life in rat hepatocytes; assay type: ADME, cell-based, Liver, Hepatocyte
[7] = target: Voltage-gated inwardly rectifying potassium channel KCNH2 (Homo sapiens, UniProt Q12809); test: Displacement of labeled dofetilide from human ERG
Voltage-gated inwardly rectifying potassium channel KCNH2, sequence (Q12809 whole entry): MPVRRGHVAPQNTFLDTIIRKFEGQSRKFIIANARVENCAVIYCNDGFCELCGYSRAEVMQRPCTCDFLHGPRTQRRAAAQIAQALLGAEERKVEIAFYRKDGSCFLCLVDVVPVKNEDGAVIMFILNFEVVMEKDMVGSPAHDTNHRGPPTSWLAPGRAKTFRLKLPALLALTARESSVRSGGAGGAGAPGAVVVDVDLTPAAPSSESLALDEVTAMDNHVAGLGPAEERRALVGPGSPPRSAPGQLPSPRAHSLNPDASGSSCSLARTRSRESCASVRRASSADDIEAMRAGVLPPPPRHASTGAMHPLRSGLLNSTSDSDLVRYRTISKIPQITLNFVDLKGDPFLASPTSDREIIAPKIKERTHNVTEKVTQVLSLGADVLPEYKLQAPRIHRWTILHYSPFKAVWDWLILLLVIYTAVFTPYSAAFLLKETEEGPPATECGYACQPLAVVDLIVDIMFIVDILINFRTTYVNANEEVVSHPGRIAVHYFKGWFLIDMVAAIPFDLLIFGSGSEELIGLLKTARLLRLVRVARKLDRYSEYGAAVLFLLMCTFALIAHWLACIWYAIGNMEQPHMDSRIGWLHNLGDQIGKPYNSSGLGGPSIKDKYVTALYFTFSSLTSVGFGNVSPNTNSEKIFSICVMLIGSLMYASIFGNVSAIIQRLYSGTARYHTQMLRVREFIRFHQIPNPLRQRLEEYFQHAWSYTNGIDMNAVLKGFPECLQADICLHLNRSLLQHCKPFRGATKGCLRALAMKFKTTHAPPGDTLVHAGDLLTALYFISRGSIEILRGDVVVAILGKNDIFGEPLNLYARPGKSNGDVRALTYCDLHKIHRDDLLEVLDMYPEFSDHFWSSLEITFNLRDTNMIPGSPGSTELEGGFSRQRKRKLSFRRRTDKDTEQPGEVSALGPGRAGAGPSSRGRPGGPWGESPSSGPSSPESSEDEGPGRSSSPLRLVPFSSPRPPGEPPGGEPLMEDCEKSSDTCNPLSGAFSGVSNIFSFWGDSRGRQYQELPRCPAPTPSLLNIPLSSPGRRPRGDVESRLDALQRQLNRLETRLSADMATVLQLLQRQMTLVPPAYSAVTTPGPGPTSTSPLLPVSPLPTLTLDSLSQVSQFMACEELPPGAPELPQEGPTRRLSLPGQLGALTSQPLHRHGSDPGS

[8] = Apparent permeability across MDCK cells; assay type: ADME, cell-based, Canis lupus familiaris; details: dog
[9] = Human immunodeficiency virus 1, Ba-L, HOS, 96 h

Q: With Cc1cc(OS(=O)(=O)c2ccccc2)cc(C)c1C(=O)N1C[C@H]2CN(CCC(CNS(=O)(=O)c3ccccc3)c3ccccc3)C[C@H]2C1 (mixture of isomers) as the compound, how does the IC50 [1, 9] read?
A: 8 nM

Q: And the IC50 [2]?
A: 1 nM

Q: And the bioavailability [3]?
A: 2%

Q: And the AUC [4]?
A: 10

Q: And the half-life [5]?
A: ≤ 20 min

Q: What about the half-life [6] of the same compound?
A: ≤ 20 min

Q: Which results are given for Cc1nc2ccccc2n1C1CC2CCC(C1)N2CCC(CNS(C)(=O)=O)c1ccccc1 (racemic)?
A: IC50 [1, 9]: 23 nM; IC50 [2]: 99 nM

Q: With Cc1nc2ccccc2n1C1CCN(CCC(CNS(=O)(=O)c2ccccc2)c2ccccc2)CC1 (racemic) as the compound, how does the IC50 [1, 9] read?
A: 362 nM

Q: With Cc1nc2ccccc2n1C1CC2CCC(C1)N2CCC(CNS(=O)(=O)c1ccccc1)c1ccccc1 (racemic) as the compound, how does the IC50 [1, 9] read?
A: 65 nM

Q: What about the IC50 [2] of the same compound?
A: 112 nM

Q: For CC(=O)NCC(CCN1C2CCC1CC(n1c(C)nc3ccccc31)C2)c1ccccc1 (racemic), which IC50 [1, 9] is on record?
A: 866 nM

Q: For CCc1nc(Cc2ccccc2)cn1C1CCN(CCC(CNS(=O)(=O)c2ccccc2)c2ccccc2)CC1 (racemic), which IC50 [1, 9] is on record?
A: 45 nM

Q: And the IC50 [2]?
A: 43 nM

Q: Which IC50 [1, 9] does the source give for Cn1nc(Cc2ccccc2)cc1C1CCN(CCC(CNS(=O)(=O)c2ccccc2)c2ccccc2)CC1 (racemic) here?
A: 88 nM

Q: Which IC50 [1, 9] does the source give for Cc1nnc(C(C)C)n1[C@@H]1C[C@H]2CC[C@@H](C1)N2CCC(C)(CNS(=O)(=O)c1ccccc1)c1ccccc1 (mixture of isomers) here?
A: 578 nM

Q: For Cc1nc2ccccc2n1[C@H]1C[C@H]2CC[C@@H](C1)N2CCC(C)(CN(C)C(=O)C1CCC(F)(F)CC1)c1ccccc1 (mixture of isomers), which IC50 [1, 9] is on record?
A: 235 nM

Q: For Cc1nnc(C(C)C)n1[C@H]1C[C@H]2CC[C@@H](C1)N2CCC(CNC(=O)C1CC(F)(F)C1)c1ccccc1 (mixture of isomers), which IC50 [1, 9] is on record?
A: > 20000 nM

Q: For Cc1nnc(C(C)C)n1[C@H]1C[C@H]2CC[C@@H](C1)N2CCC(CNC(=O)C1CCC(F)(F)CC1)c1ccccc1 (mixture of isomers) [listing 1 of 2 here], which IC50 ([1]; hos) is on record?
A: 866 nM

Q: What about the IC50 [7] of the same compound?
A: ≥ 10000 nM

Q: Which IC50 [1, 9] does the source give for Cc1nc2ccccc2n1C1CC2CCC(C1)N2CCC(CNS(=O)(=O)c1cccc(C(N)=O)c1)c1ccccc1 (racemic) here?
A: 16 nM

Q: And the IC50 [2]?
A: 161 nM

Q: Which IC50 ([1]; hos) does the source give for Cc1nnc(C(C)C)n1[C@H]1C[C@H]2CC[C@@H](C1)N2CCC(CNS(=O)(=O)c1ccccc1)c1ccccc1 (racemic; 14b) here?
A: 146 nM

Q: With COP(=O)(NCC(CCN1C2CCC1CC(n1c(C)nc3ccccc31)C2)c1ccccc1)OC (racemic) as the compound, how does the IC50 [1, 9] read?
A: 77 nM

Q: Which results are given for Cc1nnc(C(C)C)n1[C@H]1C[C@H]2CC[C@@H](C1)N2CCC(CNC(=O)c1ccccc1)c1ccccc1 (mixture of isomers)?
A: IC50 [1, 9]: > 20000 nM; IC50 [7]: ≥ 10000 nM

Q: Which results are given for Cc1nc2ccccc2n1[C@H]1C[C@H]2CC[C@@H](C1)N2CCC(C)(CN(C)S(=O)(=O)c1ccccc1)c1ccccc1 (mixture of isomers)?
A: IC50 [1, 9]: 9 nM; IC50 [2]: 1 nM; bioavailability [3]: < 1%; AUC [4]: 0; Papp [8]: 7 ×10⁻⁶ cm/s; half-life [5]: ≤ 20 min; half-life [6]: ≤ 20 min

Q: Which IC50 [1, 9] does the source give for Cc1nc2ccccc2n1C1CC2CCC(C1)N2CCC(CN(C)C(=O)C1CCC(F)(F)CC1)c1ccccc1 (racemic) here?
A: 520 nM

Q: For Cc1nc2ccccc2n1[C@H]1C[C@H]2CC[C@@H](C1)N2CCC(C)(CNS(=O)(=O)c1ccccc1)c1ccccc1 (mixture of isomers), which IC50 [1, 9] is on record?
A: 124 nM

Q: For Cc1nnc(C(C)C)n1C1CCN(CCC(CNS(=O)(=O)c2ccccc2)c2ccccc2)CC1 (racemic), which IC50 [1, 9] is on record?
A: 989 nM

Q: With Cc1nnc(C(C)C)n1[C@H]1C[C@H]2CC[C@@H](C1)N2CCC(CNS(=O)(=O)c1ccccc1)c1ccccc1 (racemic; 14a) as the compound, how does the IC50 ([1]; hos) read?
A: 480 nM

Q: What about the IC50 [7] of the same compound?
A: ≥ 10000 nM

Q: With Cc1nc2ccncc2n1[C@H]1C[C@H]2CC[C@@H](C1)N2CCC(CNS(=O)(=O)c1ccccc1)c1ccccc1 (mixture of isomers) as the compound, how does the IC50 [1, 9] read?
A: 38 nM

Q: For Cc1nc2ccccc2n1C1CC2CCC(C1)N2CCC(CNC(=O)C1CCC(F)(F)CC1)c1ccccc1 (racemic), which IC50 [1, 9] is on record?
A: 411 nM

Q: With Cc1nc2ccccc2n1[C@@H]1C[C@H]2CC[C@@H](C1)N2CCC(CNS(=O)(=O)c1ccccc1)c1ccccc1 (mixture of isomers) as the compound, how does the IC50 [1, 9] read?
A: 117 nM

Q: For Cc1nc2ccccc2n1C1CC2CCC(C1)N2CCC(CNS(=O)(=O)N1CCOCC1)c1ccccc1 (racemic), which IC50 [1, 9] is on record?
A: 13 nM

Q: For Cc1nnc(C(C)C)n1[C@H]1C[C@H]2CC[C@@H](C1)N2CCC(CNC(=O)C1CCC(F)(F)CC1)c1ccccc1 (mixture of isomers) [listing 2 of 2 here], which IC50 ([1]; hos) is on record?
A: 9740 nM

Q: Which results are given for CC(=O)N1CCc2nc(C)n([C@H]3C[C@H]4CC[C@@H](C3)N4CCC(CNS(=O)(=O)c3ccccc3)c3ccccc3)c2C1 (mixture of isomers)?
A: IC50 [1, 9]: 3 nM; IC50 [2]: 1 nM; bioavailability [3]: < 1%; AUC [4]: 0; half-life [5]: ≤ 20 min; half-life [6]: ≤ 20 min

Q: With Cc1nnc(C(C)C)n1[C@@H]1C[C@H]2CC[C@@H](C1)N2CCC(C)(CNC(=O)C1CCC(F)(F)CC1)c1ccccc1 (mixture of isomers) as the compound, how does the IC50 [1, 9] read?
A: 583 nM

Q: Which IC50 [1, 9] does the source give for Cc1nc2ccccc2n1C1CC2CCC(C1)N2CCC(CN(C)S(=O)(=O)c1ccccc1)c1ccccc1 (racemic) here?
A: 8 nM

Q: What about the IC50 [2] of the same compound?
A: 60 nM

Q: And the bioavailability [3]?
A: 5%

Q: What about the AUC [4] of the same compound?
A: 40

Q: And the half-life [5]?
A: ≤ 20 min

Q: And the half-life [6]?
A: ≤ 20 min

Q: With Cc1nnc(-c2ccccc2)n1C1CCN(CCC(CNS(=O)(=O)c2ccccc2)c2ccccc2)CC1 (racemic) as the compound, how does the IC50 [1, 9] read?
A: 5020 nM

Q: For Cc1nc2ccccc2n1[C@H]1C[C@H]2CC[C@@H](C1)N2CCC(C)(CNC(=O)C1CCC(F)(F)CC1)c1ccccc1 (mixture of isomers), which IC50 [1, 9] is on record?
A: 249 nM
